The record followed here is patent US20070208031A1, “Substituted Diketopiperazines as Oxytocin Antagonists” (priority 2004, published 2007).

Structures are written as SMILES.

For data set [1], the target named is T1, recombinant human Oxytocin-1 (hOT) receptor (Homo sapiens, UniProt P30559).
T1 construct: expressed in transfected cells
T1 sequence (P30559 1-389): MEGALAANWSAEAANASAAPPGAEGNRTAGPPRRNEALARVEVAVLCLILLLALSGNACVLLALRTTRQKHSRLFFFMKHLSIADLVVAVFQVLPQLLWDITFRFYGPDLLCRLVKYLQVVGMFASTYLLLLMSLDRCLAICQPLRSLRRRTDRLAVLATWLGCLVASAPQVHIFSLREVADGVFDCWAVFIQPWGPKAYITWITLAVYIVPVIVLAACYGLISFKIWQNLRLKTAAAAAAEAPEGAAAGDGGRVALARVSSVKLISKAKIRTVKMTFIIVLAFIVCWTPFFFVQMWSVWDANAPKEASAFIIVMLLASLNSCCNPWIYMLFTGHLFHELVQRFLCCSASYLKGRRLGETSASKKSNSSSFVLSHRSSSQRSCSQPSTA
In words: Determination of antagonist affinity at human Oxytocin-1 receptors using FLIPR (Assay 1). It is filed as cell-based. The settings on record: CHO-hOT cells, FLIPR calcium response, oxytocin at EC80; read-out: fpki (Assay 1). Here is the method: Determination of Antagonist Affinity at Human Oxytocin-1 Receptors using FLIPR
Adherent Chinese Hamster Ovary (CHO) cells, stably expressing the recombinant human Oxytocin-1 (hOT) receptor, were maintained in culture in DMEM:F12 medium (Sigma, cat no D6421), supplemented with 10% heat inactivated foetal calf serum (Gibco/lnvitrogen, cat. no.01000-147), 2 mM L-glutamine (Gibco/lnvitrogen, cat. no. 25030-024) and 0.2 mg/ml G418 (Gibco/lnvitrogen, cat no. 10131-027). Cells were grown as monolayers under 95%:5% air:CO2 at 37° C. and passaged every 3-4 days using TrypLE™ Express (Gibco/lnvitrogen, cat no. 12604-013).
Measurement of [Ca^2+]1 using the FLIPR™
CHO-hOT cells were seeded into black walled clear-base 384-well plates (Nunc) at a density of 10,000 cells per well in culture medium as described above and maintained overnight (95%:5% air:CO2 at 37° C.). After removal of culture medium, cells were incubated for 1 h at 37° C. in Tyrode's medium (NaCl, 145 mM; KCl, 2.5 mM; HEPES, 10 mM; Glucose, 10 mM; MgCl2, 1.2 mM; CaCl2, 1.5 mM) containing probenacid (0.7 mg/ml), the cytoplasmic calcium indicator, Fluo-4 (4 uM; Teflabs, USA) and the quenching agent Brilliant Black (250 uM; Molecular Devices, UK). Cells were then incubated for an additional 30min at 37° C. with either buffer alone or buffer containing OT antagonist, before being placed into a FLIPR™ (Molecular Devices, UK) to monitor cell fluorescence (λex=488 nm, λEM=540 nm) before and after the addition of a submaximal concentration of oxytocin (EC80).
Functional responses using FLIPR were analysed using Activity Base Version 5.0.10.

Data set [2] addresses T2, human recombinant oxytocin receptors (Homo sapiens, UniProt P30559).
T2 construct: expressed in transfected cells; host or cells: CHO cells (membrane preparation)
T2 sequence (P30559 1-389): T1 sequence (P30559 1-389)
The data set can be described thus: Oxytocin binding assay, [3H]-oxytocin competition on CHO membranes (Assay 2). The conditions noted are these: ~2.4 nM [3H]-oxytocin, Cheng-Prusoff, read-out: pKi (Assay 2) (converted). On the procedure: Membranes were prepared from CHO cells expressing human recombinant oxytocin receptors. The membrane preparation was frozen in aliquots at −70° C. until used.
Membranes (˜50 ug) were incubated in 200 ul of assay buffer (50 mM Tris, 10 mM MgCl2, and 0.1% bovine serum albumin, pH 7.5) containing ˜2.4 nM of [3H]-oxytocin in the absence (total binding) or presence (non-specific binding) of 1 uM unlabeled oxytocin and increasing concentrations of the compounds in Examples 1 and 2 or comparator compounds. Incubations were performed at room temperature for 60 minutes. The reactions were stopped with 3 ml of ice cold buffer and filtered through Whatman GF/C filter paper presoaked in 0.3% polyethylenimine. The filters were washed 4 times with 3 ml buffer using a Brandel cell harvester. The filters were counted in 3 ml Ready Safe scintillation fluid (Beckman).
Specific binding represented approximately 90% of total binding.
IC50 values were determined from competition binding experiments using non-linear regression analysis (GraphPad) and converted to Ki using the method of Cheng and Prusoff, 1974. Data are reported as mean values.

A short description of data set [3]: In vitro intrinsic clearance in microsomes (Assay 3), rat. It is filed as in vitro ADME. The conditions noted are these: pH 7.4; heading: Assay 3 - Microsomal Cl; rat female microsomes, 0.5 uM compound, 0.5 mg/mL protein. Here is the method: (§1) Determination of In Vitro Intrinsic Clearance in Microsomes
(§2) NADP regeneration buffer for use in incubations was prepared fresh on the assay day. It contained 7.8 mg glucose-6-phosphate (mono-sodium salt), 1.7 mg NADP and 6 Units glucose-6-phosphate dehydrogenase per 1 mL of 2% sodium bicarbonate. Microsomes (human, female; cynomolgus monkey, female; dog, female; rat, female) were prepared in pH 7.4 phosphate buffer and contained 0.625 mg protein/mL. Unless stated, all subsequent steps were performed by a Tecan Genesis 150/8 RSP. A 1.25 mM stock solution of the compounds was prepared in Acetonitrile/water (1:1). 25 ul of the 1.25 mM stock solution was added to 600 ul of Acetonitrile/water (1:1) to give a 50 uM solution. For each species, the 50 uM solutions (10 uL) were added to microsomes (790 uL) in a microplate (Porvair, 96 deepwell, square).
(§3) 400 uL of the microsomal solution containing the compound was transferred to a microplate (Porvair, 96 deepwell, round) and was pre-warmed at 37° C. for five minutes prior to initiation of incubations. All incubations were initiated by addition of 100 uL of NADP regeneration system to the pre-warmed microsomes. The mixtures were incubated at 37° C. in a Techne heating block. Following 0, 3, 6, 12 and 30 minutes incubation, 20 uL aliquots were taken and added to 100 uL of acetonitrile containing internal standard.
(§4) For determination of the rate of metabolism, incubations were performed at a compound concentration of 0.5 uM and a protein concentration of 0.5 mg/mL. The concentration of solvent in the incubation was 0.5%.
(§5) Test compound concentrations were determined by LC/MS/MS; results were reported as analyte:internal standard peak area ratios.
(§6) The rate of disappearance was calculated by fitting a single exponential decay to the concentration-time curve using Excel and intrinsic clearance was calculated using the following formula: [formula] Results

Data set [4] is described as follows: In vitro intrinsic clearance in microsomes (Assay 3), dog. The class given is in vitro ADME. The settings on record: pH 7.4; heading: Assay 3 - Microsomal Cl; dog female microsomes, 0.5 uM compound, 0.5 mg/mL protein. On the procedure:
as §1, §2, §3, §4, §5, §6

Data set [5] in a line: In vitro intrinsic clearance in microsomes (Assay 3), cynomolgus monkey. The class given is in vitro ADME. The conditions noted are these: pH 7.4; heading: Assay 3 - Microsomal Cl, Cyno; cynomolgus monkey female microsomes, 0.5 uM compound, 0.5 mg/mL protein. Here is the method:
as §1, §2, §3, §4, §5, §6

Data set [6] can be described thus: In vitro intrinsic clearance in microsomes (Assay 3), human. The conditions noted are these: pH 7.4; heading: Assay 3 - Microsomal Cl; human female microsomes, 0.5 uM compound, 0.5 mg/mL protein. It is filed as in vitro ADME. On the procedure: as §1, §2, §3, §4, §5, §6

With `CC[C@H](C)[C@@H]1C(=O)N[C@H](C2Cc3ccccc3C2)C(=O)N1[C@@H](C(=O)N(C)C)c1ccc2c(cnn2C)c1` [Example 2, (2R)-2-{(3R,6R)-3-(2,3-Dihydro-1H-inden-2-yl)-6-[(1S)-1-methylpropyl]-2,5-dioxo-1-piperazinyl}-N,N-dimethyl-2-(1-methyl-1H-indazol-5-yl)ethanamide], the Ki was 2 to 3.16 nM in data set [1] and 0.0398 to 0.126 nM in data set [2]. For the same compound, the microsomal CLint at 0.5 uM in data set [3] lay within 1 to 8 mL/min/g; in data set [4], 1 to 8 mL/min/g; in data set [5] it was 9 to 15 mL/min/g; in data set [6], 1 to 8 mL/min/g.
`CC[C@H](C)[C@@H]1C(=O)N[C@H](C2Cc3ccccc3C2)C(=O)N1[C@@H](C(=O)NC)c1ccc2c(cnn2C)c1` [Example 1, (2R)-2-{(3R,6R)-3-(2,3-Dihydro-1H-inden-2-yl)-6-[(1S)-1-methylpropyl]-2,5-dioxo-1-piperazinyl}-N-methyl-2-(1-methyl-1H-indazol-5-yl)ethanamide]: the Ki in data set [1] was 2 to 3.16 nM; in data set [2], 0.0398 to 0.126 nM. The microsomal CLint at 0.5 uM in data set [3] lay in the range of 1 to 8 mL/min/g; in data set [4], 1 to 8 mL/min/g; in data set [5], 9 to 15 mL/min/g; in data set [6] it was 1 to 8 mL/min/g.
With `CC(C)C[C@@H]1C(=O)N[C@H](C2Cc3ccccc3C2)C(=O)N1[C@@H](C(=O)N(C)C)c1ccc2[nH]ncc2c1` [Comparator compound X, (2R)-2-[(3R,6R)-3-(2,3-dihydro-1H-inden-2-yl)-6-isobutyl-2,5-dioxopiperazin-1-yl]-2-(1H-indazol-5-yl)-N,N-dimethylethanamide, reference compound], the microsomal CLint at 0.5 uM is 9 to 15 mL/min/g in data set [3], 16 to 20 mL/min/g in data set [4], above 31 mL/min/g in data set [5] and above 31 mL/min/g in data set [6].
Consider `CC(C)C[C@@H]1C(=O)N[C@H](C2Cc3ccccc3C2)C(=O)N1[C@@H](C(=O)N(C)C)c1ccc(F)cc1F` [Comparator compound Y, (2R)-2-(2,4-difluorophenyl)-2-[(3R,6R)-3-(2,3-dihydro-1H-inden-2-yl)-6-isobutyl-2,5-dioxopiperazin-1-yl]-N,N-dimethylethanamide, reference compound], for which the Ki is 2 to 3.16 nM in data set [1] and 0.0398 to 0.126 nM in data set [2]. For the same compound, the microsomal CLint at 0.5 uM in data set [3] was in the range of 1 to 8 mL/min/g; in data set [4], 1 to 8 mL/min/g; in data set [5], 21 to 30 mL/min/g; in data set [6], 16 to 20 mL/min/g.
